{"source": "paper PMC12615753", "about": "“Glutathione as a taste modulator: molecular mechanisms of interaction with umami and sweet taste receptors” (Food Chemistry: Molecular Sciences, 2025)", "molecular_target": "T1, hTAS1R1 H71Y/rTAS1R3 (UniProt Q7RTX1+Q923K1, H71Y)", "T1 construct": "UniProtKB number Q7RTX1–1); The cDNA coding region of rTAS1R3 was synthesized with optimized-codon usage for human expression; expressed in transfected cells; host or cells: HEK293T/17", "T1 sequence (Q7RTX1 21-841 H71Y)": "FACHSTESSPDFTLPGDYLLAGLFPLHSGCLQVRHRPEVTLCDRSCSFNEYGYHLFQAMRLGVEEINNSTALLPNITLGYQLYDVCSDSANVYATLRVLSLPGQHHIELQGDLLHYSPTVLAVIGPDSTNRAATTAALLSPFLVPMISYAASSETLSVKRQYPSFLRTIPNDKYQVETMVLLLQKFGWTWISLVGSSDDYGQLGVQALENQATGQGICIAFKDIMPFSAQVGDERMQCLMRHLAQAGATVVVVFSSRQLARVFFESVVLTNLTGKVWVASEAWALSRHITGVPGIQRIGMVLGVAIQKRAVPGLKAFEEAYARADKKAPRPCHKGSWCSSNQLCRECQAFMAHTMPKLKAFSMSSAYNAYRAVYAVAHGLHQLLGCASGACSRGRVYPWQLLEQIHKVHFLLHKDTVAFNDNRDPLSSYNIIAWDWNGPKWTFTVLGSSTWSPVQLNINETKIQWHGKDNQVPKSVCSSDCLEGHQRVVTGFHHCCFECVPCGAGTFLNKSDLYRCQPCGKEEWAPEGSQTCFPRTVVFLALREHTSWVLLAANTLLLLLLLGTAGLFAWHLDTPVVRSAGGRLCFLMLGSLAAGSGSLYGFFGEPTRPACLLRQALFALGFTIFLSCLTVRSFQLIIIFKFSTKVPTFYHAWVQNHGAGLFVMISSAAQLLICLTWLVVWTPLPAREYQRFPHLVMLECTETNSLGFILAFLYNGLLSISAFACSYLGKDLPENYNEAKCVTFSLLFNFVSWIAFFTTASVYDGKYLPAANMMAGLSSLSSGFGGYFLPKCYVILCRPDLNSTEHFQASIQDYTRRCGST", "T1 sequence (Q923K1 21-858)": "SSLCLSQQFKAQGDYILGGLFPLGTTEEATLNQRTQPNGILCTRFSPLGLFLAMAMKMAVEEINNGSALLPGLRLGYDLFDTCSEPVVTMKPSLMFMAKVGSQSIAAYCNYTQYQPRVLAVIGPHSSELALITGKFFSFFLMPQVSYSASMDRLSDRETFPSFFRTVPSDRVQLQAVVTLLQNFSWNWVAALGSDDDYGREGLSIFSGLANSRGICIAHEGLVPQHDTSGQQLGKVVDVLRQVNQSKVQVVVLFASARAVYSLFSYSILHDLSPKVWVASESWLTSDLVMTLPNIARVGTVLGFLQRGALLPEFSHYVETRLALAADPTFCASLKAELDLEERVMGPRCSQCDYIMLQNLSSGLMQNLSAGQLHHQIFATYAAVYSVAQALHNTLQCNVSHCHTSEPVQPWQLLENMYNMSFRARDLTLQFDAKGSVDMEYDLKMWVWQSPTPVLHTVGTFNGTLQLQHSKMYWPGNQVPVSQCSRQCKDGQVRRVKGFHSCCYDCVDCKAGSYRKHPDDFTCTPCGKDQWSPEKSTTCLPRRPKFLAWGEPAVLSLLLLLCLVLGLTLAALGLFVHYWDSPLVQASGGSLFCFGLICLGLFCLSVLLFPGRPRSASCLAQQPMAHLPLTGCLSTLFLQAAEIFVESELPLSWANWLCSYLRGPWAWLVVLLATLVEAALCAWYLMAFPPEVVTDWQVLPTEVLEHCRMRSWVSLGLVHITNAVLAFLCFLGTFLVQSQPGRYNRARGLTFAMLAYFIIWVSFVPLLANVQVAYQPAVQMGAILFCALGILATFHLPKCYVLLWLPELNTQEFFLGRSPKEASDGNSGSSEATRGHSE", "assay": "cell-based", "format": "cell-based, human, rat", "source_text": "Chimeric Gα proteins, such as Gα16Gust44, Gα16Gi3 or Gα15i2, are widely used in the functional expression of TAS1R receptors ([Backes et al., 2015]; [Suess et al., 2015]; [Toda et al., 2021], [Toda et al., 2013], [Toda et al., 2018]; [Zhang et al., 2008]). Chimeric Gα15i2 (([Toda et al., 2013]), Supplementary data) was generated by replacing the last five residues of the C-terminal tail of rat Gα15i2 (EINLL) (UniProt number G3V6N8; https://www.uniprot.org/uniprot/) with the counterpart sequence from human GNAI2 (DCGLF) (UniProt number P04899-1) and cloning into the pcDNA3.1/Hygro vector (Invitrogen, Thermo Fisher Scientific, Illkirch, France) between the HindIII and NotI restriction sites, resulting in the plasmid pcDNA3.1-Gα15i2. Chimeric Gα16Gust44 construct have already been reported ([Raliou et al., 2011]). Briefly, Gα16Gust44 was generated by replacing the C-terminal of Gα16 with the C-terminal 44 residues of gustducin. As previously described, hTAS1R1 was amplified from human fungiform papillae cDNA and cloned and inserted into pcDNA3 (Invitrogen), generating pcDNA3-TAS1R1-WT (wild-type) ([Raliou et al., 2011]). […] The cDNA coding region of rTAS1R3 was synthesized with optimized-codon usage for human expression (Genewiz) and was cloned and inserted into the mammalian pcDNA4/myc-HisA (Invitrogen) expression vector between the EcoRI and NotI restriction sites, resulting in the plasmid pcDNA4-rTAS1R3. […] The sequence integrity of all the plasmid constructs was verified via automated DNA sequencing (Genewiz).\nThe hTAS1R1 mutants were co-expressed with the rTAS1R3 subunit in HEK293 cells. […] As a control, the functionality of the mutated receptors was checked after stimulation with S807 (Fig. S8), which interacts with TAS1R1-TMD ([Zhang et al., 2008])."}
{"smiles": "N[C@@H](CCC(=O)N[C@@H](CS)C(=O)NCC(=O)O)C(=O)O", "note": "[GSH, γ-L-glutamyl-L-cysteinyl-glycine]", "values": [{"measurement": "EC50", "result": 12.4, "unit": "mM"}, {"measurement": "effect of the added compound (1 mM) on the response to L-Glu", "setting": "H71Y", "result": "did not affect"}, {"measurement": "Max ∆F/F0", "setting": "H71Y, GSH", "result": "0.65 ± 0.11"}, {"measurement": "R1 = mutant EC50/WT EC50", "setting": "H71Y, GSH", "result": 4.9}]}
